The subject of data set [1] is human lung cancer cell line NCI-H460. In words: Cell growth inhibition assay (MTT), NCI-H460. It is filed as cell-based. Particulars: NCI-H460, 72 hours. How it is done:
(§1) A cell growth inhibition assay was performed using two types of cells (human breast cancer cell line SK-BR-3 and human lung cancer cell line NCI-H460).
(§2) Cells of each type were suspended in a medium and seeded into a 96-well multi-well plate at 2000 cells/150 μL/well in the case of SK-BR-3 and at 500 cells/150 μL/well in the case of NCI-H460. The test compound was dissolved in DMSO, and this was diluted with medium to prepare a sample solution (DMSO concentration: 0.5% or less). On the day following the seeding, 50 μL of DMSO-containing medium to which the test compound was not added (hereinafter called DMSO diluted solution; DMSO concentration: 0.5% or less) or 50 μL of the sample solution was further added to the cells. An MTT assay was performed immediately after and 72 hours after adding the sample solution or the DMSO diluted solution to the cells. The MTT assay was performed as follows.
(§3) 5 mg/mL of an MTT (3-(4,5-dimethylthiazol-2-yl)-2,5-diphenyltetrazolium bromide) solution was added at 20 μL per well. Thereafter, the plate was incubated at 37° C. in 5% CO2 for four hours. The plate was centrifuged at 1200 rpm for five minutes, and then the culture supernatant was removed by suction using a dispenser. DMSO was added at 150 μL per well, and the generated formazan was dissolved. The plate was stirred using a plate mixer to uniformly color the respective wells. The absorbance of each well was measured using a plate reader at an OD of 540 nm with a reference of 660 nm.
(§4) T/C (%) for each concentration was determined by the following calculation formula and a dose-response curve was drawn to calculate the 50% growth inhibitory concentration (GI50 value), based on the assumption that the OD value measured immediately after adding the sample solution was S, the OD value measured 72 hours after adding the sample solution was T, and the OD value measured 72 hours after adding the DMSO diluted solution was C. T/C (%)=(T−S)/(C−S)×100 The results are shown below.

The subject of data set [2] is human breast cancer cell line SK-BR-3. Put plainly: Cell growth inhibition assay (MTT), SK-BR-3. It is filed as cell-based. Conditions: SK-BR-3, 72 hours. As to the method: as §1, §2, §3, §4
For a further data set, the target named is CYP3A4 (Homo sapiens, UniProt P08684). In words: in vitro. Conditions: microsomes, pH 7.4. As to the method:
Appropriate amounts of such test compound, substrate, target to be measured, and positive control were weighed. They were dissolved in DMSO, and were then diluted with acetonitrile, as appropriate.
180 μl of a reaction solution prepared by mixing the following (1) to (5) had previously been warmed at 37° C. for 10 minutes:
(1) Potassium phosphate buffer (pH 7.4; final concentration: 50 mM)
(3) Midazolam (final concentration: 2.5 μM)
(5) Human hepatic microsome (final concentration: 0.05 mg-P/ml)
20 μl of the NADPH Regeneration System (solution A/solution B/purified water=5/1/4) was added to this reaction solution, and the reaction was initiated. The mixture was incubated for 10 minutes. Thereafter, 50 μl of the reaction solution was sampled, and it was then added to 200 μl of acetonitrile, followed by the termination of the reaction. Further, 50 μl of an acetonitrile solution containing an internal standard substance was added to the reaction solution.
In order to remove proteins from this sample, the reaction solution was transferred to a 96-Well Collection Plate (Waters) using Captiva (registered trademark) (GL Sciences). This sample solution was defined as a sample used for the assay of LC-MS/MS.
Samples of 1′-Hydroxymidazolam having known concentrations (final concentrations: 0 to 5 μM; total 5 points) were prepared, separately. A calibration curve used for assay was prepared, and the concentration of 1′-Hydroxymidazolam in the sample was assayed. This reaction was carried out in a duplicated manner.
The amount of 1′-Hydroxymidazolam generated in the negative control was defined as 100%, and the ratio of the amount of this compound generated by addition of each compound was then calculated. Thus, the inhibition value of CYP3A4 was obtained.

Data set [3] concerns the target T1, recombinant yeast Hsp90 protein (rHsp90) (Saccharomyces cerevisiae, UniProt P02829).
T1 construct: made in house; host or cells: Escherichia coli
Put plainly: Hsp90 ATPase assay. It counts as biochemical. Conditions: at a concentration of 2 μM; 100 μM ATP, 37° C., two hours; read-out: ATPase inhibitory activity. How it is done: An Hsp90 ATPase assay was performed using a recombinant yeast Hsp90 protein (hereinafter called rHsp90). Yeast Hsp90 DNA was cloned from a yeast genomic DNA library according to a conventional method. The cloned yeast Hsp90 DNA was incorporated into a plasmid for expression in Escherichia coli, and the plasmid was expressed in Escherichia coli to obtain rHsp90.
The test compound was dissolved in DMSO to 10 mM. The dissolved solution was diluted with DMSO to two concentrations, 1 mM and 0.2 mM. Each diluted solution was further 10-fold diluted with an assay buffer (100 mM Tris, pH 7.4, 20 mM KCl, 6 mM MgCl2) (concentration of each test compound solution: 100 μM and 20 μM; DMSO concentration: 10%).
rHsp90 was dissolved in a TE buffer (20 mM Tris, pH 7.4, 1 mM EDTA) to a concentration of 2.531 mg/mL. The solution was diluted with an assay buffer to 125 μg/mL and dispensed to a 96-well assay plate at 40 μL per well (final concentration: 100 μg/mL).
The test compound solution was dispensed at 5 μL per well, and then the solutions in the respective wells were mixed using a plate mixer. 100 mM ATP (Sigma, Catalog No. A-7699) was diluted with an assay buffer to 1 mM and dispensed at 5 μL per well (final concentration: 100 μM). The solutions in the respective wells were mixed using a plate mixer, and then the assay plate was allowed to stand in an incubator set at 37° C. for two hours.
BIOMOL GREEN Reagent (BIOMOL, Catalog No. AK-111) was dispensed at 100 μL per well, and the reaction was terminated. The solutions in the respective wells were mixed using a plate mixer, and then 34% sodium citrate was dispensed at 10 μL per well. The solutions in the respective wells were mixed using a plate mixer, and then the assay plate was left to stand at room temperature for 30 minutes. The absorbance at 650 nm of each well was measured using SpectramaxPLUS (Molecular Devices).
The ratio of the absorbance of the test compound-added group to the absorbance of the test compound-free group (T/C value) was determined by the following calculation formula, based on the assumption that the absorbance of the well to which the test compound and rHsp90 were added was A, the absorbance of the well to which only rHsp90 was added was B, and the absorbance of the well to which neither the test compound nor rHsp90 was added was C. The calculation was carried out using Softmax Pro 4.6 (Molecular Devices). Furthermore, an inhibition rate (%) was calculated using the following calculation formula: T/C=(A−C)/(B−C)

The structures appear in SMILES notation.

Sequence of CYP3A4 (P08684 whole entry): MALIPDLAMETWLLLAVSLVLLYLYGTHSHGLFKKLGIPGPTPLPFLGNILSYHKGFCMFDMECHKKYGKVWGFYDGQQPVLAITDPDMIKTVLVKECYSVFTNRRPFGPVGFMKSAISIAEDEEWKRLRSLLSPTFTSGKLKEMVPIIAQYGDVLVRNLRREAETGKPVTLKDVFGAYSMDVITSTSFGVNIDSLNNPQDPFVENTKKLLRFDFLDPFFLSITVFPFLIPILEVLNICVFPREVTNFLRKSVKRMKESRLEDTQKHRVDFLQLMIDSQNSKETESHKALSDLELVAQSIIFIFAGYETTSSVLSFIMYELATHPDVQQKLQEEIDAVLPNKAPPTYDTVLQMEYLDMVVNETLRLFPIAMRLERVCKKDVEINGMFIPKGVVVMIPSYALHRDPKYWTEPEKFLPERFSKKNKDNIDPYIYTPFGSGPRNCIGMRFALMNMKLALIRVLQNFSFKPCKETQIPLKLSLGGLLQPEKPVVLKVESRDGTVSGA
T1 sequence (P02829 whole entry): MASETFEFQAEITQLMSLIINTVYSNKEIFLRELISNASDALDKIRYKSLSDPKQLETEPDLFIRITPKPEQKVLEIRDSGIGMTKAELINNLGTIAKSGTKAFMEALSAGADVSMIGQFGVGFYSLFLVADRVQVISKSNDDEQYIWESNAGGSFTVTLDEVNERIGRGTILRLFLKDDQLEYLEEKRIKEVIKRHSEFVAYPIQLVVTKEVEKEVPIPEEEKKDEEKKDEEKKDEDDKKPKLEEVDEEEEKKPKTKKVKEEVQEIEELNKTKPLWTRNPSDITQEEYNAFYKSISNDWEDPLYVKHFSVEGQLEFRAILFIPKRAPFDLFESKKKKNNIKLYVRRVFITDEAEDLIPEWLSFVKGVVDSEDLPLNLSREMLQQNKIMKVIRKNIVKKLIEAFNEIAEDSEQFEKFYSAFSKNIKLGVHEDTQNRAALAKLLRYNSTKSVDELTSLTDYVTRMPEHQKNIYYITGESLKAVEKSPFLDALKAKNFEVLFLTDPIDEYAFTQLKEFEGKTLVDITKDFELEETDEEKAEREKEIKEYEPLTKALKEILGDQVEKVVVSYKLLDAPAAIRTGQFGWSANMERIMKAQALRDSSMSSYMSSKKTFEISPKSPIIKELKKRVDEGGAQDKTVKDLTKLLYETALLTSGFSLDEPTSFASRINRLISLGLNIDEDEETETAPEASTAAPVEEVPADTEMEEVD

Turning to `CNC(=O)CC1=Cc2nn(Cc3ncc(C)c(OC)c3Cl)c3nc(N)nc(c23)SC1` [Compound 1, 2-{4-Amino-2-[(3-chloro-4-methoxy-5-methylpyridin-2-yl)methyl]-2,7-dihydro-6-thia-1,2,3,5-tetraazabenzo[cd]azulen-8-yl}-N-methylacetamide], the GI50 in data set [1] was determined as 26 nM; in data set [2], 13 nM. Moreover, the inhibition at 10 min, 10 μM on CYP3A4 stood at 15%. Further, the inhibition at 2 µM in data set [3] was at least 50%.

`CNC(=O)CC1=Cc2nn(Cc3ncc(F)c(OC)c3C)c3nc(N)nc(c23)SC1` [Compound 2, 2-{4-Amino-2-[(5-fluoro-4-methoxy-3-methylpyridin-2-yl)methyl]-2,7-dihydro-6-thia-1,2,3,5-tetraazabenzo-[cd]azulen-8-yl}-N-methylacetamide]: the 50% growth inhibitory concentration (GI50) stood at 90 nM in data set [1] and 39 nM in data set [2]. Moreover, the inhibition at 10 min, 10 μM at CYP3A4 was determined as 58%. Besides, the inhibition at 2 µM in data set [3] is at least 50%.

On to `CNC(=O)CC1=Cc2nn(Cc3ncc(C)c(OC)c3Br)c3nc(N)nc(c23)SC1` [Compound 3, 2-{4-Amino-2-[(3-bromo-4-methoxy-5-methylpyridin-2-yl)methyl]-2,7-dihydro-6-thia-1,2,3,5-tetraazabenzo[cd]azulen-8-yl}-N-methylacetamide], for which the GI50 in data set [1] came to 30 nM; in data set [2], 14 nM. Besides, at CYP3A4, the inhibition at 10 min, 10 μM was 5%. For the same molecule, the inhibition at 2 µM in data set [3] was at least 50%.

`COc1c(C)cnc(Cn2nc3c4c(nc(N)nc42)SCC(CC(N)=O)=C3)c1Br` [Compound 4, 2-{4-Amino-2-[(3-bromo-4-methoxy-5-methylpyridin-2-yl)methyl]-2,7-dihydro-6-thia-1,2,3,5-tetraazabenzo[cd]azulen-8-yl}acetamide mesilate]: the results for the GI50 in data set [1] and in data set [2] were 22 nM and 11 nM, respectively. In addition, the inhibition at 10 min, 10 μM against CYP3A4 worked out at 43%. For the same molecule, the inhibition at 2 µM in data set [3] was at least 50%.

For the molecule `COc1c(C)cnc(Cn2nc3c4c(nc(N)nc42)SCC(CC(=O)NCCF)=C3)c1Cl` [Compound 5, 2-{4-Amino-2-[(3-chloro-4-methoxy-5-methylpyridin-2-yl)methyl]-2,7-dihydro-6-thia-1,2,3,5-tetraazabenzo[cd]azulen-8-yl}-N-(2-fluoroethyl)acetamide], the GI50 in data set [1] is 36 nM; in data set [2], 16 nM. In addition, the inhibition at 10 min, 10 μM on CYP3A4 came to 66%. For the same molecule, in data set [3], the inhibition at 2 µM is at least 50%.

With `COc1ccnc(Cn2nc3c4c(nc(N)nc42)SCC(C(=O)NCC(F)F)=C3)c1Cl` [Compound 6, 4-Amino-2-[(3-chloro-4-methoxypyridin-2-yl)methyl]-N-(2,2-difluoroethyl)-2,7-dihydro-6-thia-1,2,3,5-tetraazabenzo[cd]azulen-8-carboxamide], the GI50 is 110 nM in data set [1] and 45 nM in data set [2]. Also, the inhibition at 10 min, 10 μM at CYP3A4 was -18%. In data set [3], the inhibition at 2 µM was at least 50%.

Broadly, the GI50 is the concentration that inhibits growth by half. Lower therefore signals more potent growth inhibition.

Source of the values: patent publication US8445504B2, “Tricyclic pyrazolopyrimidine derivatives” (Daiichi Sankyo Company, Limited, priority 2009, dated 2013).
